Experimental data as given in ChEMBL document CHEMBL6087449, “Identification of an Isoxazole Derivative as an Antitubercular Compound for Targeting the FadD Enzymes of Mycobacterium tuberculosis” (J Med Chem, 2025).
≈ marks a conversion by molar mass, not a printed value. Calls of active or inactive are those of the source. The rule behind the calls is not given here.

Assays:
[1] = test system: Mycobacterium tuberculosis; assay: Antitubercular activity against Mycobacterium tuberculosis H37Rv assessed as inhibition of bacterial growth incubated for 5 days by Alamar Blue based assay; format: functional, organism-based; settings: 120 h
Escherichia coli = assay: Antibacterial activity against Escherichia coli assessed as inhibition of bacterial growth upto 200 microg/ml incubated for 5 days by Alamar Blue based assay; format: functional, organism-based; settings: dose <= 200.0 µg/ml, time 5.0 day
[2] = test system: Mycolicibacterium smegmatis; assay: Antimycobacterial activity against Mycobacterium smegmatis assessed as inhibition of bacterial growth incubated for 5 days by Alamar Blue based assay; format: functional, organism-based; settings: 120 h
[3] = test system: Mycobacterium tuberculosis; assay: Antitubercular activity against Mycobacterium tuberculosis H37Rv assessed as inhibition of bacterial growth incubated for 5 days in presence of rifampicin by Alamar Blue based assay; format: functional, organism-based; settings: time 5.0 day
[4] = test system: Mycobacterium tuberculosis; assay: Antitubercular activity against Mycobacterium tuberculosis H37Rv assessed as inhibition of bacterial growth incubated for 5 days in presence of isoniazid by Alamar Blue based assay; format: functional, organism-based; settings: time 5.0 day
[5] = biological target: T1, Long-chain-fatty-acid--AMP ligase FadD32 (Mycobacterium tuberculosis (strain ATCC 25618 / H37Rv)) (UniProt O53580); assay: Inhibition of Mycobacterium tuberculosis H37Rv recombinant FadD32 upto 200 uM in presence of lauric acid by Michaelis-Menten plot analysis
T1 sequence (whole entry): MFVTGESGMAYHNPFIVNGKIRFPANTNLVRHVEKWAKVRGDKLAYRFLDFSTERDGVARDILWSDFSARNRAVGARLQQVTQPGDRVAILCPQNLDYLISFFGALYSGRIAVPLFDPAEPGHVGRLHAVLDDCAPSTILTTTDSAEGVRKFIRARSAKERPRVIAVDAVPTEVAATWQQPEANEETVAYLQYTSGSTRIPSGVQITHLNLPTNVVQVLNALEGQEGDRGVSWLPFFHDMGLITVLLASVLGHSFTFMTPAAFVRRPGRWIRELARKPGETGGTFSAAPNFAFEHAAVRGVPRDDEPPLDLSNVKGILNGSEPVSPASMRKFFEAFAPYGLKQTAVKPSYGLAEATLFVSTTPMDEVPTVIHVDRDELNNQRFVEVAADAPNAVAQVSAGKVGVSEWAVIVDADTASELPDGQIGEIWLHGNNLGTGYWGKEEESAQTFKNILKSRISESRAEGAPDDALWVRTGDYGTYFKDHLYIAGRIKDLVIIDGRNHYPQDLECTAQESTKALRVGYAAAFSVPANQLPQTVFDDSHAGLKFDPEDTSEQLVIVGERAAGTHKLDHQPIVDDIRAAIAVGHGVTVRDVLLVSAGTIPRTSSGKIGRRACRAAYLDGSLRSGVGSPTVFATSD

[6] = biological target: T2, Long-chain-fatty-acid--AMP ligase FadD32 (Mycobacterium tuberculosis (strain ATCC 25618 / H37Rv), UniProt O53580); assay: Uncompetitive inhibition of Mycobacterium tuberculosis H37Rv recombinant FadD32 assessed as inhibition constant in presence of lauric acid by Lineweaver-burk plot analysis
T2 sequence (O53580 whole entry): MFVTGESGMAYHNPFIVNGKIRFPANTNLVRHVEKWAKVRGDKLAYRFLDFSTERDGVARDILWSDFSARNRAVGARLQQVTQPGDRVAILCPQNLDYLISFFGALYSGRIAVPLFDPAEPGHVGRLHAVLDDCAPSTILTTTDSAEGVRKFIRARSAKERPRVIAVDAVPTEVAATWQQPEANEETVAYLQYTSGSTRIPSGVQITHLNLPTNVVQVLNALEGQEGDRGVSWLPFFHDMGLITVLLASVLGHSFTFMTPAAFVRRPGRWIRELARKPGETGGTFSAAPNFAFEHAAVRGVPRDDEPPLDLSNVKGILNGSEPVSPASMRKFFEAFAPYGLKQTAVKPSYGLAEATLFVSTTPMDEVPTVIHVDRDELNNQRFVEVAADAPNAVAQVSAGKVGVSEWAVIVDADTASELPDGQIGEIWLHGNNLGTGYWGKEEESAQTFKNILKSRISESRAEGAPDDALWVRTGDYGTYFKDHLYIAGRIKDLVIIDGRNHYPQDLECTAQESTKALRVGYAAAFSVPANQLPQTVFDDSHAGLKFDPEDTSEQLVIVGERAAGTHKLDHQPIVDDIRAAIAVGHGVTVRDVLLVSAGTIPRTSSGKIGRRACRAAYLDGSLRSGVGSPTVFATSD

[7] = biological target: T2, Long-chain-fatty-acid--AMP ligase FadD32; assay: Partial noncompetitive inhibition of Mycobacterium tuberculosis H37Rv recombinant FadD32 assessed as inhibition constant in presence of ATP by Lineweaver-burk plot analysis
[8] = biological target: T3, Long-chain-fatty-acid--AMP ligase FadD28 (Mycobacterium tuberculosis) (UniProt P9WQ59); assay: Inhibition of Mycobacterium tuberculosis H37Rv recombinant fadD28 at 200 uM relative to control
T3 sequence (whole entry): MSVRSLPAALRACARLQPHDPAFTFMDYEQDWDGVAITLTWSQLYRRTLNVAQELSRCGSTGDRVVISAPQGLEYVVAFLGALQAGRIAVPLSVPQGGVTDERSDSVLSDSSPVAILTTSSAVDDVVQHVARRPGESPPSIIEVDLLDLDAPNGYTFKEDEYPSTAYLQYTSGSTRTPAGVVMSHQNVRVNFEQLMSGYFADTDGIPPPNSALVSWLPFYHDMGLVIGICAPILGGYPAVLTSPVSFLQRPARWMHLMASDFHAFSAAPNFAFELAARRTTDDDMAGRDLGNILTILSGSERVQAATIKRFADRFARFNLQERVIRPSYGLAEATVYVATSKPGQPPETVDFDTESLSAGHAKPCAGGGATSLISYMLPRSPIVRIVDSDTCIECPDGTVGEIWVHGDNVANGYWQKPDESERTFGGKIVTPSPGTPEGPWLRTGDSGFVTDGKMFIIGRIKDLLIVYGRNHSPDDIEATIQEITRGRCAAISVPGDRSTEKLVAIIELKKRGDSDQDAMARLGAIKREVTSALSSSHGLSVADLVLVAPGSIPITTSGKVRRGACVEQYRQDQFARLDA

[9] = biological target: T1, Long-chain-fatty-acid--AMP ligase FadD32 (Mycobacterium tuberculosis (strain ATCC 25618 / H37Rv)); assay: Inhibition of Mycobacterium tuberculosis H37Rv recombinant fadD32 at 200 uM relative to control
RAW264.7 = assay: Cytotoxicity against mouse RAW264.7 cells assessed as cell viability at 25 microg/ml incubated for 24 hrs by MTT assay; format: toxicity, cell-based; settings: raw264.7, 24 h, dose 25 µg/ml
THP-1 = assay: Cytotoxicity against PMA-differentiated human THP-1 cells assessed as reduction in cell viability at 25 microg/ml incubated for 24 hrs by MTT assay; format: toxicity, cell-based; settings: thp-1, 24 h, dose 25 µg/ml
[10] = test system: Mycobacterium tuberculosis; assay: Antitubercular activity against Mycobacterium tuberculosis infected in mouse RAW264.7 cells assessed as reduction in colony forming units at 5 to 9 microg/ml incubated for 48 hrs; format: functional, organism-based; settings: dose 5-9 µg/ml
[11] = test system: Mycobacterium tuberculosis; assay: Antitubercular activity against Mycobacterium tuberculosis infected in human THP-1 cells assessed as reduction in colony forming units at 5 to 9 microg/ml incubated for 48 hrs; format: functional, organism-based; settings: dose 5-9 µg/ml
[12] = test system: Mycobacterium tuberculosis; assay: Antitubercular activity against Mycobacterium tuberculosis infected in mouse RAW264.7 cells assessed as reduction in colony forming units at 5 to 9 microg/ml incubated for 48 hrs in presence of rifampin; format: functional, organism-based; settings: dose 5-9 µg/ml
[13] = test system: Mycobacterium tuberculosis; assay: Antitubercular activity against Mycobacterium tuberculosis infected in mouse RAW264.7 cells assessed as reduction in colony forming units at 5 to 9 microg/ml incubated for 48 hrs in presence of isoniazid; format: functional, organism-based; settings: dose 5-9 µg/ml
[14] = test system: Mycobacterium tuberculosis; assay: Antitubercular activity against Mycobacterium tuberculosis infected in mouse RAW264.7 cells assessed as reduction in colony forming units at 5 to 9 microg/ml incubated for 48 hrs in presence of ethambutol; format: functional, organism-based; settings: dose 5-9 µg/ml
[15] = test system: Mycobacterium tuberculosis; assay: Antitubercular activity against Mycobacterium tuberculosis infected in human THP-1 cells assessed as reduction in colony forming units at 5 to 9 microg/ml incubated for 48 hrs in presence of rifampin; format: functional, organism-based; settings: dose 5-9 µg/ml
[16] = test system: Mycobacterium tuberculosis; assay: Antitubercular activity against Mycobacterium tuberculosis infected in human THP-1 cells assessed as reduction in colony forming units at 5 to 9 microg/ml incubated for 48 hrs in presence of isoniazid; format: functional, organism-based; settings: dose 5-9 µg/ml
[17] = test system: Mycobacterium tuberculosis; assay: Antitubercular activity against Mycobacterium tuberculosis infected in human THP-1 cells assessed as reduction in colony forming units at 5 to 9 microg/ml incubated for 48 hrs in presence of ethambutol; format: functional, organism-based; settings: dose 5-9 µg/ml
[18] = test system: Mycobacterium tuberculosis; assay: Downregulation of esxH mRNA expression in Mycobacterium tuberculosis assessed as fold change by qRT-PCR analysis; format: functional
[19] = test system: Mycobacterium tuberculosis; assay: Downregulation of papA mRNA expression in Mycobacterium tuberculosis assessed as fold change by qRT-PCR analysis; format: functional
[20] = test system: Mycobacterium tuberculosis; assay: Downregulation of hspX mRNA expression in Mycobacterium tuberculosis assessed as fold change by qRT-PCR analysis; format: functional
[21] = test system: Mycobacterium tuberculosis; assay: Downregulation of fadD28 mRNA expression in Mycobacterium tuberculosis assessed as fold change by qRT-PCR analysis; format: functional
[22] = test system: Mycobacterium tuberculosis; assay: Downregulation of fadD32 mRNA expression in Mycobacterium tuberculosis assessed as fold change by qRT-PCR analysis; format: functional
[23] = test system: Mycobacterium tuberculosis; assay: Downregulation of efpA mRNA expression in Mycobacterium tuberculosis assessed as fold change by qRT-PCR analysis; format: functional
[24] = test system: Mycobacterium tuberculosis; assay: Downregulation of murE mRNA expression in Mycobacterium tuberculosis assessed as fold change by qRT-PCR analysis; format: functional
[25] = test system: Mycobacterium tuberculosis; assay: Downregulation of ctpC mRNA expression in Mycobacterium tuberculosis assessed as fold change by qRT-PCR analysis; format: functional
[26] = test system: Mycobacterium tuberculosis; assay: Downregulation of groES mRNA expression in Mycobacterium tuberculosis assessed as fold change by qRT-PCR analysis; format: functional
[27] = test system: Mycobacterium tuberculosis; assay: Downregulation of IspD mRNA expression in Mycobacterium tuberculosis assessed as fold change by qRT-PCR analysis; format: functional
[28] = test system: Mycobacterium tuberculosis; assay: Downregulation of PKS13 mRNA expression in Mycobacterium tuberculosis assessed as fold change by qRT-PCR analysis; format: functional
[29] = test system: Mycobacterium tuberculosis; assay: Downregulation of CarD mRNA expression in Mycobacterium tuberculosis assessed as fold change by qRT-PCR analysis; format: functional
[30] = Toxicity in BALB/c mouse assessed as animal survival at 2.5 mg/kg, ip measured for 14 days; format: organism-based; settings: in vivo, 336 h, time 14 day
[31] = Toxicity in BALB/c mouse assessed as body weight loss at 2.5 mg/kg, ip measured for 14 days; format: organism-based; settings: in vivo, 336 h, time 14 day
[32] = Toxicity in BALB/c mouse assessed as change in SGPT level in serum at 2.5 mg/kg, ip measured for 14 days; format: organism-based; settings: in vivo, 336 h, time 14 day
[33] = Toxicity in BALB/c mouse assessed as change in SGOT level in serum at 2.5 mg/kg, ip measured for 14 days; format: organism-based; settings: in vivo, 336 h, time 14 day
[34] = Toxicity in BALB/c mouse assessed as change in creatine level in serum at 2.5 mg/kg, ip measured for 14 days; format: organism-based; settings: in vivo, 336 h, time 14 day
[35] = Toxicity in BALB/c mouse assessed as change in ALP level in serum at 2.5 mg/kg, ip measured for 14 days; format: organism-based; settings: in vivo, 336 h, time 14 day
[36] = Toxicity in BALB/c mouse assessed as change in BUN level in serum at 2.5 mg/kg, ip measured for 14 days; format: organism-based; settings: in vivo, 336 h, time 14 day
[37] = test system: Mycobacterium tuberculosis; assay: Antitubercular activity against Mycobacterium tuberculosis H37Rv infected in BALB/c mouse chronic model assessed as reduction in tubercular granulomas at 2.5 mg/kg, ip measured after 4 weeks by H and E staining based analysis; format: functional, organism-based
[38] = test system: Mycobacterium tuberculosis; assay: Antitubercular activity against Mycobacterium tuberculosis H37Rv infected in BALB/c mouse chronic model assessed as reduction in reduction in mycobacterial burden in lung at 2.5 mg/kg, ip measured after 21 to 25 days by H and E staining based analysis; format: functional, organism-based; settings: time 21-25 day

Compound: Oc1c(Br)cc(Br)cc1-c1cc(C(F)(F)F)no1
- IC50 [1]: 4.8 µg/mL (≈ 12.4 µM)
- Activity (Escherichia coli): inactive
- IC50 [2]: 20.8 µg/mL (≈ 53.8 µM)
- Activity [3]: Active
- Activity [4]: Active
- inhibition [5]: Active
- Ki [6]: 48.1 µM
- Ki [7]: 55.3 µM
- inhibition [8]: 50%
- inhibition [9]: 95%
- Activity (RAW264.7): Non-toxic
- Activity (THP-1): Non-toxic
- Activity [10]: Active
- Activity [11]: Active
- Activity [12]: Active
- Activity [13]: Active
- Activity [14]: Active
- Activity [15]: Active
- Activity [16]: Active
- Activity [17]: Active
- fold change (FC) [18]: 2
- fold change (FC) [19]: 2
- fold change (FC) [20]: 2
- fold change (FC) [21]: 2
- fold change (FC) [22]: 2
- fold change (FC) [23]: 2
- fold change (FC) [24]: 2
- fold change (FC) [25]: 2
- fold change (FC) [26]: 2
- fold change (FC) [27]: 2
- fold change (FC) [28]: 2
- fold change (FC) [29]: 2
- Activity [30]: Non-toxic
- Activity [31]: Non-toxic
- Activity [32]: Non-toxic
- Activity [33]: Non-toxic
- Activity [34]: Non-toxic
- Activity [35]: Non-toxic
- Activity [36]: Non-toxic
- Activity [37]: Active
- Activity [38]: Active

Compound: Cc1ccc(O)c(-c2cc(C(F)(F)F)no2)c1
- IC50 [1]: 10.5 µg/mL (≈ 43.2 µM)
